Consider 26 compounds from patent publication US11098029B2, “5-alkyl pyrrolidine orexin receptor agonists” (Merck Sharp & Dohme Corp., priority 2019, dated 2021).

The structures appear in SMILES notation.

In general, IC50 refers to the concentration that gives 50% inhibition. High values mean a need for much substance, low ones inhibition by little substance. What is called Emax is the size of the effect at its maximum, as opposed to the concentration needed.

The target in one test is human OX2R (Homo sapiens (Human), UniProt O43614). Put plainly: IPOne (IP-One, Cisbio) orexin receptor agonist assay in CHO cells expressing human OX2R.
Chain of human OX2R (O43614 whole entry): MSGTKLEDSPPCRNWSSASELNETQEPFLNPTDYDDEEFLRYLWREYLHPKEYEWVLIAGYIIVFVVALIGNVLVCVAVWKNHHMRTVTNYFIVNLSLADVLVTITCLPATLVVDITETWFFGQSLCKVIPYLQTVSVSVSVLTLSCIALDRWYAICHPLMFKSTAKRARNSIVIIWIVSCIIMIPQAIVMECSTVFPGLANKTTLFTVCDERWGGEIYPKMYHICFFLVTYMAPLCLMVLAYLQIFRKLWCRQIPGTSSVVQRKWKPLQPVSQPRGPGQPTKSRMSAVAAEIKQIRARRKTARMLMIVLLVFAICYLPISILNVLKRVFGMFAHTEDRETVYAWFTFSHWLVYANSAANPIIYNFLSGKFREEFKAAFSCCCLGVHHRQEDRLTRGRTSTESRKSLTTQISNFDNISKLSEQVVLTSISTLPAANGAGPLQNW
Conditions: not given
`COC(=O)N1[C@H](CC#N)C[C@H](NS(=O)(=O)N(C)C)[C@@H]1CO[C@H]1CC[C@@H](c2cccc(F)c2)CC1` [Example 52, methyl (2R,3S,5S)-5-(cyanomethyl)-3-((N,N-dimethylsulfamoyl)amino)-2-((((CIS)-4-(3-fluorophenyl)cyclohexyl)oxy)methyl)pyrrolidine-1-carboxylate] gave an IC50 of 7.8 nM. This lies in the single-digit nanomolar range.

Still in this test, the particulars now being: CHO, hOX2R_IP; percentage of mean max effect of a reference compound at 1 uM (100% activity vs Orexin A).
Consider `CC(C)OC(=O)N1[C@H](C)C[C@H](NS(=O)(=O)N(C)C)[C@@H]1COC1CCN(c2ncc(F)cn2)CC1` [Example 39, isopropyl (2R,3S,5R)-3-((N,N-dimethylsulfamoyl)amino)-2-(((1-(5-fluoropyrimidin-2-yl)piperidin-4-yl)oxy)methyl)-5-methylpyrrolidine-1-carboxylate], for which the Emax is 101%. Compound `COC(=O)N1C(C2CC2)C[C@H](NS(C)(=O)=O)C1COC1CCC(c2ccccc2)CC1` (stereo partly drawn) [Example 44, methyl (CIS)-5-cyclopropyl-3-(methylsulfonamido)-2-((((CIS)-4-phenylcyclohexyl)oxy)methyl)pyrrolidine-1-carboxylate] had an Emax of 101%. As for `CC[C@H]1C[C@@H](NS(C)(=O)=O)[C@@H](CO[C@H]2CC[C@@H](c3ccccc3)CC2)N1C(=O)OC` [Example 45, methyl (2S,3R,5S)-5-ethyl-3-(methylsulfonamido)-2-((((CIS)-4-phenylcyclohexyl)oxy)methyl)-pyrrolidine-1-carboxylate], the Emax came to 62%. Regarding `CC[C@@H]1C[C@H](NS(C)(=O)=O)[C@H](CO[C@H]2CC[C@@H](c3ccccc3)CC2)N1C(=O)OC` [Example 46, methyl (2R,3S,5R)-5-ethyl-3-(methylsulfonamido)-2-((((CIS)-4-phenylcyclohexyl)oxy)methyl)pyrrolidine-1-carboxylate], the Emax amounted to 101%. `COC[C@@H]1C[C@H](NS(=O)(=O)N(C)C)[C@H](CO[C@H]2CC[C@@H](c3cccc(F)c3)CC2)N1C(=O)OC` [Example 51, methyl (2R,3S,5S)-3-((N,N-dimethylsulfamoyl)amino)-2-((((CIS)-4-(3-fluorophenyl)cyclohexyl)-oxy)methyl)-5-(methoxymethyl)pyrrolidine-1-carboxylate] showed an Emax of 101%. The compound `COC(=O)N1[C@H](CC#N)C[C@H](NS(=O)(=O)N(C)C)[C@@H]1CO[C@H]1CC[C@@H](c2cccc(F)c2)CC1` [Example 52, methyl (2R,3S,5S)-5-(cyanomethyl)-3-((N,N-dimethylsulfamoyl)amino)-2-((((CIS)-4-(3-fluorophenyl)cyclohexyl)oxy)methyl)pyrrolidine-1-carboxylate] had an Emax of 102%. The compound `COCCS(=O)(=O)N[C@H]1C[C@@H](C)N(C(=O)OC)[C@H]1COC1CCC(c2cccc(F)c2)CC1` (stereo partly drawn) [Example 61] displayed an Emax of 105%. In the case of `COC(=O)N1[C@H](C)C[C@H](NS(=O)(=O)CF)[C@@H]1COC1CCC(c2cccc(F)c2)CC1` (stereo partly drawn) [Example 62, methyl (2R,3S,5R)-3-((fluoromethyl)sulfona-mido)-2-((((1s,4S)-4-(3-fluorophenyl)cyclohex-yl)oxy)methyl)-5-methylpyrrolidine-1-carboxylate], the Emax worked out at 98%. `CCc1ccccc1[C@H]1CC[C@@H](OC[C@H]2[C@@H](NS(=O)(=O)N(C)C)C[C@@H](C)N2C(=O)OC)CC1` [Example 65, Methyl (2R,3S,5R)-3-((N,N-dimethylsulfamoyl)amino)-2-((((1s,4S)-4-(2-ethylphenyl)cyclohexyl)oxy)methyl)-5-methylpyrrolidine-1-carboxylate]: the Emax worked out at 101%. Turning to `CCc1ccccc1[C@H]1CC[C@H](OC[C@H]2[C@@H](NS(=O)(=O)N(C)C)C[C@@H](C)N2C(=O)OC)CC1` [Example 66, methyl (2R,3S,5R)-3-((N,N-dimethylsulfamoyl)amino)-2-((((1r,4R)-4-(2-ethylphenyl)cyclohexyl)oxy)methyl)-5-methylpyrrolidine-1-carboxylate], the Emax turned out to be 100%.

Still in this test, the particulars now being: hOX2R_IP; percentage of mean max effect of a reference compound at 1 uM (100% activity vs Orexin A).
As for `CCC1CC(NS(C)(=O)=O)C(CO[C@H]2CC[C@@H](c3ccccc3)CC2)N1C(=O)OC` (stereo partly drawn) [Example 40, methyl (CIS)-5-ethyl-3-(methylsulfonamido)-2-((((CIS)-4-phenylcyclohexyl)oxy)-methyl)pyrrolidine-1-carboxylate], the “Emax (%)” value turned out to be 100%.

For `COC(=O)N1C(CCO)CC(NS(C)(=O)=O)C1CO[C@H]1CC[C@@H](c2ccccc2)CC1` (stereo partly drawn) [Example 49, methyl (CIS)-5-(2-hydroxyethyl)-3-(methylsulfonamido)-2-((((CIS)-4-phenylcyclohexyl)oxy)methyl)pyrrolidine-1-carboxylate], the “Emax (%)” value was determined as 102%. As to `COC(=O)N1C(CO)CC(NS(C)(=O)=O)C1CO[C@H]1CC[C@@H](c2ccccc2)CC1` (stereo partly drawn) [Example 50, methyl (CIS)-5-(hydroxymethyl)-3-(methylsulfonamido)-2-((((CIS)-4-phenylcyclohexyl)oxy)-methyl)pyrrolidine-1-carboxylate], the “Emax (%)” value was determined as 101%.

As to `COC(=O)N1[C@H](C)C[C@H](NS(=O)(=O)N(C)CC#N)[C@@H]1CO[C@H]1CC[C@@H](c2cccc(F)c2)CC1` [Example 53, Methyl (2R,3S,5R)-3-((N-(cyanomethyl)-N-methylsulfamoyl)amino)-2-((((1s,4S)-4-(3-fluorophenyl)cyclohexyl)oxy)methyl)-5-methylpyrrolidine-1-carboxylate], the “Emax (%)” value is recorded as 102%.

`COC(=O)N1[C@H](C)C[C@H](NS(=O)(=O)N(C)CCC#N)[C@@H]1CO[C@H]1CC[C@@H](c2cccc(F)c2)CC1` [Example 54, methyl (2R,3S,5R)-3-((N-(2-cyanoethyl)-N-methylsulfamoyl)amino)-2-((((1s,4S)-4-(3-fluorophenyl)cyclohex-yl)oxy)methyl)-5-methylpyrrolidine-1-carboxylate]: the “Emax (%)” value is reported as 98%. On to `COCCN(C)S(=O)(=O)N[C@H]1C[C@@H](C)N(C(=O)OC)[C@H]1CO[C@H]1CC[C@@H](c2cccc(F)c2)CC1` [Example 55, methyl (2R,3S,5R)-2-((((1s,4S)-4-(3-fluorophenyl)cyclohex-yl)oxy)methyl)-3-((N-(2-methoxyethyl)-N-methylsulfamoyl)amino)-5-methylpyrrolidine-1-carboxylate], for which the “Emax (%)” value amounted to 100%. For the compound `COC(=O)N1[C@H](C)C[C@H](NS(=O)(=O)N(C)CCO)[C@@H]1CO[C@H]1CC[C@@H](c2cccc(F)c2)CC1` [Example 56, methyl (2R,3S,5R)-2-((((1s,4S)-4-(3-fluorophenyl)cyclohex-yl)oxy)methyl)-3-((N-(2-hydroxyethyl)-N-methylsulfamoyl)amino)-5-methylpyrrolidine-1-carboxylate], the “Emax (%)” value is given as 101%. Same read-out and setting: the result for `COC(=O)N1[C@H](C)C[C@H](NS(=O)(=O)N(C)CCS(C)(=O)=O)[C@@H]1COC1CCC(c2cccc(F)c2)CC1` (stereo partly drawn) [Example 57, methyl (2R,3S,5R)-2-((((1s,4S)-4-(3-fluorophenyl)cyclohex-yl)oxy)methyl)-5-methyl-3-((N-methyl-N-(2-(methyslulfonyl)-ethyl)sulfamoyl)amino) pyrrolidine-1-carboxylate] reads 100%.

Turning to `COC(=O)N1[C@H](C)C[C@H](NS(=O)(=O)N(C)CC2CS(=O)(=O)C2)[C@@H]1CO[C@H]1CC[C@@H](c2cccc(F)c2)CC1` [Example 58, methyl (2R,3S,5R)-3-((N-((1,1-dioxidothietan-3-yl)methyl)-N-methylsulfamoyl)amino)-2-((((1s,4S)-4-(3-fluorophenyl)cyclohex-yl)oxy)methyl)-5-methylpyrrolidine-1-carboxylate], the “Emax (%)” value was 101%. For `COC(=O)N1[C@H](C)C[C@H](NS(=O)(=O)N(C)CCOC(F)(F)F)[C@@H]1CO[C@H]1CC[C@@H](c2cccc(F)c2)CC1` [Example 59, methyl (2R,3S,5R)-2-((((1s,4S)-4-(3-fluorophenyl)cyclohex-yl)oxy)methyl)-5-methyl-3-((N-methyl-N-(2-(trifluoromethoxy)ethyl)sulfamoyl)amino)pyrro-lidine-1-carboxylate], the “Emax (%)” value is reported as 99%. With `COC(=O)N1[C@H](C)C[C@H](NS(=O)(=O)CC(F)F)[C@@H]1CO[C@H]1CC[C@@H](c2cccc(F)c2)CC1` [Example 60, Methyl (2R,3S,5R)-3-((2,2-difluoroethyl)sulfonamido)-2-((((1s,4S)-4-(3-fluorophenyl)-cyclohexyl)oxy)methyl)-5-methylpyrrolidine-1-carboxylate], the “Emax (%)” value stood at 99%. Consider `COC(=O)N1[C@H](C)C[C@H](NS(=O)(=O)N(C)C)[C@@H]1CO[C@H]1CC[C@@H](c2ccc(C#N)c(C)c2)CC1` [Example 63, Methyl (2R,3S,5R)-2-((((1s,4S)-4-(4-cyano-3-methylphenyl)cyclohexyl)oxy)methyl)-3-((N,N-dimethylsulfamoyl)amino)-5-methylpyrrolidine-1-carboxylate], for which the “Emax (%)” value worked out at 100%. With `COC(=O)N1[C@H](C)C[C@H](NS(=O)(=O)N(C)C)[C@@H]1CO[C@H]1CC[C@H](c2ccc(C#N)c(C)c2)CC1` [Example 64, Methyl (2R,3S,5R)-2-((((1r,4R)-4-(4-cyano-3-methylphenyl)cyclohexyl)oxy)methyl)-3-((N,N-dimethylsulfamoyl)amino)-5-methylpyrrolidine-1-carboxylate], the “Emax (%)” value turned out to be 99%.

As to `COC(=O)N1[C@H](C)C[C@H](NS(C)(=O)=O)[C@@H]1CO[C@H]1CC[C@H](c2ncccn2)CC1` [Example 69, Methyl (2R,3S,5R)-5-methyl-3-(methylsulfonamido)-2-((((1r,4R)-4-(pyrimidin-2-yl)cyclohexyl)oxy)methyl)pyrrolidine-1-carboxylate], the “Emax (%)” value was determined as 98%. Same read-out and setting: the result for `COC(=O)N1[C@H](C)C[C@H](NS(C)(=O)=O)[C@@H]1CO[C@H]1CC[C@@H](c2ncccn2)CC1` [Example 70, Methyl (2R,3S,5R)-5-methyl-3-(methylsulfonamido)-2-((((1s,4S)-4-(pyrimidin-2-yl)cyclohexyl)oxy)methyl)pyrrolidine-1-carboxylate] reads 99%; that for `COC(=O)N1[C@H](C)C[C@H](NS(C)(=O)=O)[C@@H]1CO[C@H]1CC[C@@H](c2cc(F)cc(F)c2)CC1` [Example 71, Methyl (2R,3S,5R)-2-((((1s,4S)-4-(3,5-difluorophenyl)cyclohexyl)oxy)methyl)-5-methyl-3-(methylsulfonamido)pyrrolidine-1-carboxylate], 102%.
